Experimental data from ChEMBL document CHEMBL3507680, “University of Dundee, Gates Library screen for HepG2 cell viability”.

Experiment: Human HepG2 cell viability assay in 384 well format
Format: toxicity, cell-based
Design: dose 125 nL, time 70.5 hour; cytotoxicity at 70.5 h: concentration not given beside the values
Conditions: HepG2 cells, read-out: Inhibition

| SMILES | cytotoxicity at 70.5 h [%] |
| --- | --- |
| Oc1ccccc1-c1n[nH]c(C2CCCO2)n1 (centres undefined) | 28.5 |
| COCCCNC(=O)c1cc(C(C)C)nc(N2CCCCCC2)n1 | -8.22 |
| COc1c(C(=O)NCc2cccnc2)nnn1Cc1ccc(C)cc1 | -15.1 |
| CC(=O)Nc1ncc(S(=O)(=O)Nc2ccc(F)cc2)s1 | 30.4 |
| CCn1c(Nc2ccccc2OC)nc2c(C)nn(C)c2c1=O | 14 |
| COc1cc2cc(C(=O)O)n(C)c2cc1OC | -14.4 |
| CCn1cc(CN(C)S(=O)(=O)c2ccc(NC(C)=O)cc2)cn1 | 26.5 |
| CCN(CC)CCNC(=O)c1nn(CC)cc1Cl | 18.6 |
| CCn1cc(N2Cc3nc(N4CCOCC4)ncc3C2=O)cn1 | 2.67 |
| CCn1cc(N2Cc3nc(N)ncc3C2=O)cn1 | 29.8 |
| CCn1nc(C)c2nnn(CC(=O)Nc3c(C)cccc3C)c(=O)c21 | 27.9 |
| CSCc1cccc(S(=O)(=O)N2CCC(C)CC2)c1 | 8.82 |
| Cc1nn(C)c2c(NCCCn3cccn3)ncnc12 | -6.36 |
| Cc1nn(C)c2cnn(C(C)C(=O)NCc3cccnc3)c12 (centres undefined) | -5.87 |
| Cc1cccnc1NC(=O)C(C)Cn1nc(C(F)(F)F)cc1C (centres undefined) | -4.08 |
| CCc1noc(C2CCCCN2C(=O)c2nnc3ccccc3n2)n1 (centres undefined) | 17.3 |
| CCc1noc(C2CCCCN2C(=O)c2ccn(C3CCCC3)n2)n1 (centres undefined) | 31 |
| CCn1nc(C)c2ncnc(NCC(=O)N3CCOCC3)c21 | -11.2 |
| CCn1nc(C)c2ncnc(NCCCN3CCOCC3)c21 | 6.44 |
| Cc1nn(C)c2c(N3CCN(C(=O)NC4CCCCC4)CC3)ncnc12 | 4.87 |
| Cc1nc(N2CCN(C(=O)C3CC3)CC2)c2c(n1)c(C)nn2C | 0.516 |

| SMILES | cytotoxicity at 70.5 h [%] |
| --- | --- |
| CCC(=O)Nc1nnc(CCOc2cccc(OC)c2)s1 | 6.47 |
| CCOCCCNC(=O)c1cc(C(C)C)nc(N2CCCCCC2)n1 | 26.5 |
| CCN(CC)CCNC(=O)c1cc(C(C)C)nc(N2CCCC2)n1 | 56.7 |
| CCOCCCNC(=O)c1cc(C)nc(N2CCCC2)n1 | 21.7 |
| Cc1ccc(CNC(=O)Cn2ncc3c2c(C)nn3C)cc1 | -0.794 |
| Cc1nn(C)c2cnn(CC(=O)NCCc3ccccc3)c12 | -6.1 |
| O=C1CC(c2ccc(F)c(F)c2)c2snc(C(=O)O)c2N1 (centres undefined) | 8.54 |
| Cc1ccc2cnn(CCC(=O)NCc3c(C)nn(C)c3C)c2c1 | -6.87 |
| CCc1noc(C2CCN(C(=O)CCn3nc(C)cc3C)CC2)n1 | -12.9 |
| CC1CCN(C(=O)c2ccn(COc3ccc(F)cc3)n2)CC1 | -6.36 |
| CCCn1ccc(C(=O)N2CCC(C)CC2)n1 | -11.6 |
| Cc1nc(NCCc2ccc(Cl)cc2)cc(C(=O)N2CCCCC2)n1 | 13.8 |
| Cc1nc(NCc2ccc(C)o2)cc(C(=O)N2CCOCC2)n1 | -9.84 |
| O=C(COCc1nc(-c2ccncc2)no1)N1CCCC1 | -4.88 |
| O=C(COCc1nc(-c2ccncc2)no1)NC1CCCCC1 | -2.53 |
| COc1ccc(OC)c(C(C)Nc2nc3c(C)nn(C)c3c(=O)n2C)c1 (centres undefined) | 12.4 |
| CCCNC(=O)C(C)n1cc(Br)cn1 (centres undefined) | -11.8 |
| COCCNC(=O)C(C)n1cc(Br)cn1 (centres undefined) | -15.1 |
| CCn1nc(C)c2nc(C(C)C)nc(N3CCCCC3)c21 | -11.3 |
| CSCc1cccc(S(=O)(=O)NCCCn2ccnc2)c1 | -5.18 |
| CCN1CCN(S(=O)(=O)c2cc(Cl)c(Cl)cc2C)CC1 | -2.4 |

| SMILES | cytotoxicity at 70.5 h [%] |
| --- | --- |
| Cc1nccn1CC(=O)N1CC(Cc2nccc3ccn(C)c23)C1 | -9.67 |
| CCn1cc(CN2C[C@@H]3CCCN3C[C@H]2CCSC)cn1 | -7.68 |
| Cc1cc(CCC(N)=O)cc(C2CCCN2Cc2ccnn2C)n1 (centres undefined) | -6.78 |
| Cc1nc(C2CN(C)CCO2)cc(N2CCC(C(N)=O)CC2)n1 (centres undefined) | -10.6 |
| Cc1nc(Nc2ccccn2)cc(C2CCCN2C2CCOCC2)n1 (centres undefined) | -10.7 |
| CCC(=O)N1CCC(c2cc(Nc3ncccn3)nc(C)n2)C1 (centres undefined) | -10.9 |
| CC(=O)N1CCC(N2CC(Cc3nccc4ccn(C)c34)C2)CC1 | -6.03 |
| Cc1cc(N2CCCC2c2cc(Nc3cnccn3)nc(C)n2)ncn1 (centres undefined) | -11.4 |
| CC(=O)N1CCCC(c2ccc(C(N)=O)cn2)C1 (centres undefined) | -8.88 |
| CC(C)S(=O)(=O)N1CCC(c2[nH]ncc2S(C)(=O)=O)C1 (centres undefined) | -2.31 |
| CN(C)C(=O)CN1CCCC(CCCc2ccccn2)(C(N)=O)C1 (centres undefined) | 10.1 |
| Cc1cccc(CN2CCCC2(C(N)=O)c2cnccn2)n1 (centres undefined) | 19 |
| CNCC(=O)N1CCCC(c2ccnc(Nc3cnccn3)n2)C1 (centres undefined) | -9.17 |
| CN1CCC(Cc2cc(Nc3ccccn3)ncn2)CC1 | 10.1 |
| Cc1c(C2CCCN(C(=O)c3cccnc3)C2)n2c(nc1=O)CCC2 (centres undefined) | -8.11 |
| CNc1nccnc1C1CCN(C(C)C)CC1 | 12.4 |
| CN(C)C(=O)CN1CCCC1c1nccnc1Nc1ccccn1 (centres undefined) | -8.51 |
| CNc1cc(N2CCC(O)(CNC(=O)c3ccc(C)nc3)C2)ncn1 (centres undefined) | -6.58 |
| CN(C)c1cncc(C2CCN(CC(N)=O)CC2)n1 | -0.457 |
| O=C(Cn1ccnc1)N1C[C@@H]2CC[C@H](Oc3ccccc3F)[C@@H]2C1 | 10.9 |
| Cc1noc(C)c1-c1cncc(CC2CCN(C(=O)c3cc[nH]n3)C2)n1 (centres undefined) | -4.86 |

| SMILES | cytotoxicity at 70.5 h [%] |
| --- | --- |
| Cc1nnsc1C(=O)N1CCCC(n2nnc3cc(F)ccc32)C1 (centres undefined) | -5.58 |
| O=C(c1n[nH]cc1Cl)N1CCCC(n2nnc3cc(F)ccc32)C1 (centres undefined) | -5.16 |
| Cc1nn(C)cc1CN1CCc2nc(-c3cccnc3)nc(O)c2C1 | -3.92 |
| CCn1ncc(CN2CCc3nc(-c4cccnc4)nc(O)c3C2)c1C | 9.93 |
| Cc1ccc(O)c(CN2CCc3nc(-c4cccnc4)nc(O)c3C2)c1 | -5.78 |
| Cc1cc(-c2cnc(NC3CC3)nc2-c2ccoc2C)on1 | -5.1 |
| Cc1cc(-c2cnc(NC3CC3)nc2-c2ccoc2)on1 | 2.18 |
| Cc1ncc(CN2CCc3c(nc(-c4ccccn4)[nH]c3=O)C2)n1C | -8.75 |
| Cc1n[nH]c(C)c1-c1nccnc1CC1CCN(S(C)(=O)=O)C1 (centres undefined) | -7.83 |
| Cc1n[nH]c(C)c1-c1nccnc1CC1CCCN(C)C1 (centres undefined) | -7.42 |
| CN(C)c1cncc(C2CCN(CC3(O)CCCCC3)CC2)n1 | 25.1 |
| CC(=O)N1CCCC1c1cccc(NCc2ccccc2F)n1 (centres undefined) | -1.09 |
| O=C(C1CCCC1)N1CCOC(c2nc(-c3ncccn3)no2)C1 (centres undefined) | -4.9 |
| O=C(C1CCCC1)N1CCC(c2ccnc(Nc3cnccn3)n2)C1 (centres undefined) | 15 |
| CC(C)(N)C(=O)N1CCCC(c2cncc(Oc3cccnc3)n2)C1 (centres undefined) | -3.9 |
| Cc1ccc(-c2cccc(CC3(C(=O)O)CCOCC3)c2)c(C)c1 | -5.38 |
| Cc1cc(CCC(=O)Nc2nncs2)nc(C2CCCN2)n1 (centres undefined) | 1.25 |
| O=C(NCCn1nc(C2CCNC2)c2cccnc21)C1CC1 (centres undefined) | -1.28 |
| O=C(NCCn1nc(C2CCNC2)c2cccnc21)C1CCC1 (centres undefined) | 2.22 |
| COCC(=O)N1CCCC(c2cc(C(F)F)n3ncnc3n2)C1 (centres undefined) | -2.53 |
| Cc1nc(Nc2cnccn2)cc(C2CCN(CCO)C2)n1 (centres undefined) | -9.95 |
